From the supplement of paper PMC10307832

Key:
Assay in all cases: relative viability (nuclei count vs DMSO), 5 days (fraction); higher = more cells survive
201T = tested on: 201T
How it was run: (§1)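 Lung cancer cell lines were pin-tool dosed in 1536-well plates on the day after seeding, with either a lone drug or a fixed anchor-drug dose plus five library-drug doses (not always all listed) in √10 steps. Nuclei were counted on 4× images after 5 days. Relative viability is the ratio of treated-well to vehicle-well nuclei counts, with each value a median of duplicate plates.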

COR-L23 = tested on: COR-L23
How it was run: as §1

EPLC-272H = tested on: EPLC-272H
How it was run: as §1

H3255 = tested on: H3255
How it was run: as §1

HCC-15 = tested on: HCC-15
How it was run: as §1

LOU-NH91 = tested on: LOU-NH91
How it was run: as §1

NCI-H1650 = tested on: NCI-H1650
How it was run: as §1

NCI-H1734 = tested on: NCI-H1734
How it was run: as §1

NCI-H1793 = tested on: NCI-H1793
How it was run: as §1

NCI-H2023 = tested on: NCI-H2023
How it was run: as §1

NCI-H2170 = tested on: NCI-H2170
How it was run: as §1

NCI-H2347 = tested on: NCI-H2347
How it was run: as §1

NCI-H2405 = tested on: NCI-H2405
How it was run: as §1

NCI-H3122 = tested on: NCI-H3122
How it was run: as §1

NCI-H322M = tested on: NCI-H322M
How it was run: as §1

NCI-H441 = tested on: NCI-H441
How it was run: as §1

NCI-H520 = tested on: NCI-H520
How it was run: as §1

NCI-H647 = tested on: NCI-H647
How it was run: as §1

PC-14 = tested on: PC-14
How it was run: as §1

SW 900 = tested on: SW 900
How it was run: as §1

UMC-11 = tested on: UMC-11
How it was run: as §1

CCN(CC)CCCCNc1ncc2cc(-c3cc(OC)cc(OC)c3)c(NC(=O)NC(C)(C)C)nc2n1 + CC(=O)c1c(C)c2cnc(Nc3ccc(N4CCNCC4)cn3)nc2n(C2CCCC2)c1=O [Palbociclib] (partner 0.5 µM)
relative viability (201T; first compound 0.01 µM): 0.395 | relative viability (201T; first compound 0.03162 µM): 0.387 | relative viability (201T; first compound 0.1 µM): 0.406 | relative viability (201T; first compound 0.3162 µM): 0.389 | relative viability (201T; first compound 1 µM): 0.372 | relative viability (COR-L23; first compound 0.01 µM): 0.291 | relative viability (COR-L23; first compound 0.03162 µM): 0.343 | relative viability (COR-L23; first compound 0.1 µM): 0.341 | relative viability (COR-L23; first compound 0.3162 µM): 0.312 | relative viability (COR-L23; first compound 1 µM): 0.248 | relative viability (EPLC-272H; first compound 0.01 µM): 0.286 | relative viability (EPLC-272H; first compound 0.1 µM): 0.33 | relative viability (EPLC-272H; first compound 0.3162 µM): 0.284 | relative viability (EPLC-272H; first compound 1 µM): 0.339 | relative viability (H3255; first compound 0.01 µM): 0.317 | relative viability (H3255; first compound 0.03162 µM): 0.292 | relative viability (H3255; first compound 0.1 µM): 0.388 | relative viability (H3255; first compound 0.3162 µM): 0.315 | relative viability (H3255; first compound 1 µM): 0.317 | relative viability (HCC-15; first compound 0.01 µM): 0.82 | relative viability (HCC-15; first compound 0.03162 µM): 0.826 | relative viability (HCC-15; first compound 0.1 µM): 0.826 | relative viability (HCC-15; first compound 0.3162 µM): 0.797 | relative viability (HCC-15; first compound 1 µM): 0.729 | relative viability (LOU-NH91; first compound 0.01 µM): 0.572 | relative viability (LOU-NH91; first compound 0.03162 µM): 0.546 | relative viability (LOU-NH91; first compound 0.1 µM): 0.557 | relative viability (LOU-NH91; first compound 0.3162 µM): 0.491 | relative viability (LOU-NH91; first compound 1 µM): 0.412 | relative viability (NCI-H1650; first compound 0.01 µM): 0.311 | relative viability (NCI-H1650; first compound 0.03162 µM): 0.338 | relative viability (NCI-H1650; first compound 0.1 µM): 0.354 | relative viability (NCI-H1650; first compound 0.3162 µM): 0.308 | relative viability (NCI-H1650; first compound 1 µM): 0.296 | relative viability (NCI-H1734; first compound 0.01 µM): 0.16 | relative viability (NCI-H1734; first compound 0.03162 µM): 0.281 | relative viability (NCI-H1734; first compound 0.1 µM): 0.334 | relative viability (NCI-H1734; first compound 0.3162 µM): 0.38 | relative viability (NCI-H1734; first compound 1 µM): 0.323 | relative viability (NCI-H1793; first compound 0.01 µM): 0.288 | relative viability (NCI-H1793; first compound 0.03162 µM): 0.295 | relative viability (NCI-H1793; first compound 0.1 µM): 0.403 | relative viability (NCI-H1793; first compound 0.3162 µM): 0.277 | relative viability (NCI-H1793; first compound 1 µM): 0.269 | relative viability (NCI-H2023; first compound 0.01 µM): 0.317 | relative viability (NCI-H2023; first compound 0.03162 µM): 0.32 | relative viability (NCI-H2023; first compound 0.1 µM): 0.348 | relative viability (NCI-H2023; first compound 0.3162 µM): 0.347 | relative viability (NCI-H2023; first compound 1 µM): 0.291 | relative viability (NCI-H2170; first compound 0.01 µM): 0.38 | relative viability (NCI-H2170; first compound 0.03162 µM): 0.37 | relative viability (NCI-H2170; first compound 0.1 µM): 0.429 | relative viability (NCI-H2170; first compound 0.3162 µM): 0.409 | relative viability (NCI-H2170; first compound 1 µM): 0.385 | relative viability (NCI-H2347; first compound 0.01 µM): 0.551 | relative viability (NCI-H2347; first compound 0.03162 µM): 0.452 | relative viability (NCI-H2347; first compound 0.1 µM): 0.415 | relative viability (NCI-H2347; first compound 0.3162 µM): 0.484 | relative viability (NCI-H2347; first compound 1 µM): 0.387 | relative viability (NCI-H2405; first compound 0.01 µM): 0.567 | relative viability (NCI-H2405; first compound 0.03162 µM): 0.564 | relative viability (NCI-H2405; first compound 0.1 µM): 0.539 | relative viability (NCI-H2405; first compound 0.3162 µM): 0.534 | relative viability (NCI-H2405; first compound 1 µM): 0.52 | relative viability (NCI-H3122; first compound 0.01 µM): 0.184 | relative viability (NCI-H3122; first compound 0.03162 µM): 0.175 | relative viability (NCI-H3122; first compound 0.1 µM): 0.157 | relative viability (NCI-H3122; first compound 0.3162 µM): 0.194 | relative viability (NCI-H3122; first compound 1 µM): 0.179 | relative viability (NCI-H322M; first compound 0.01 µM): 0.516 | relative viability (NCI-H322M; first compound 0.03162 µM): 0.45 | relative viability (NCI-H322M; first compound 0.1 µM): 0.508 | relative viability (NCI-H322M; first compound 0.3162 µM): 0.504 | relative viability (NCI-H322M; first compound 1 µM): 0.474 | relative viability (NCI-H441; first compound 0.01 µM): 0.193 | relative viability (NCI-H441; first compound 0.03162 µM): 0.204 | relative viability (NCI-H441; first compound 0.1 µM): 0.198 | relative viability (NCI-H441; first compound 0.3162 µM): 0.261 | relative viability (NCI-H441; first compound 1 µM): 0.193 | relative viability (NCI-H520; first compound 0.01 µM): 0.22 | relative viability (NCI-H520; first compound 0.03162 µM): 0.22 | relative viability (NCI-H520; first compound 0.1 µM): 0.217 | relative viability (NCI-H520; first compound 0.3162 µM): 0.175 | relative viability (NCI-H520; first compound 1 µM): 0.15 | relative viability (NCI-H647; first compound 0.01 µM): 0.309 | relative viability (NCI-H647; first compound 0.03162 µM): 0.42 | relative viability (NCI-H647; first compound 0.1 µM): 0.427 | relative viability (NCI-H647; first compound 0.3162 µM): 0.497 | relative viability (NCI-H647; first compound 1 µM): 0.394 | relative viability (PC-14; first compound 0.01 µM): 0.599 | relative viability (PC-14; first compound 0.03162 µM): 0.467 | relative viability (PC-14; first compound 0.1 µM): 0.654 | relative viability (PC-14; first compound 0.3162 µM): 0.564 | relative viability (PC-14; first compound 1 µM): 0.56 | relative viability (SW 900; first compound 0.01 µM): 0.653 | relative viability (SW 900; first compound 0.03162 µM): 0.535 | relative viability (SW 900; first compound 0.1 µM): 0.602 | relative viability (SW 900; first compound 0.3162 µM): 0.517 | relative viability (SW 900; first compound 1 µM): 0.483 | relative viability (UMC-11; first compound 0.01 µM): 0.338 | relative viability (UMC-11; first compound 0.03162 µM): 0.305 | relative viability (UMC-11; first compound 0.1 µM): 0.351 | relative viability (UMC-11; first compound 0.3162 µM): 0.313 | relative viability (UMC-11; first compound 1 µM): 0.343
